Data on one compound can be found in patent publication US20260144776A1, “COMBINATION THERAPY FOR A DOPAMINE AGONIST” (priority 2017, published 2026).

One data set deals with humans. The following applies: in vivo. The procedure:
The study was single center, single-blind study.
Once a subject had reached his/her first intolerable dose (FID-1), upward dose escalation was discontinued.
All other provisions of the protocol remained unchanged. Assessments were the same as those planned for the dose escalation day.
On each study day, subjects were followed up for up to 8 hours following drug administration for AEs, vital signs, ECGs. In addition, a laboratory panel was taken at screening and at the end of the study.

For data set [1], the system named is depressive symptoms in patients with PD. The following applies: 12 weeks, 296 PD patients, pramipexole 0.125 to 1.0 mg/kg; placebo 4.0 (SE 0.5), p=0.01; cited from earlier work.
The test system of data set [2] is patients with a DSM-III-R diagnosis of major depression. The following applies: pramipexole 5.0 mg group, cited from earlier work.
The subject of data set [3] is animal behavior simulating symptoms of depression. The following applies: high doses of pramipexole; cited from earlier work.

Take `CCCN[C@H]1CCc2nc(N)sc2C1` [Pramipexole, (S)-6-propylamino-4,5,6,7-tetrahydro-1,3-benzothiazole-2-amine]: the dose limiting toxicity entry with humans is on record as “gastro-intestinal adverse events”. Besides, the “BDI scores decreased by an adjusted” value in data set [1] is listed as 5.9 (SE 0.5). Also, in data set [2] (mainly because of adverse events), the “patients who discontinued treatment prematurely” value is on record as 57.6%. For the same compound, the “improvement at week 8 (change from baseline)” value in data set [2] (best improvement, no p value against placebo because of drop-out rate) is listed as −15.00. In addition, in data set [2], the “patients who reported nausea” value was 76% and the “patients who reported vomiting” value is listed as 39%. In data set [3], the “activity in tests of animal behavior simulating symptoms of depression” value is recorded as “active”.
